US6911445B2, “Antidepressant cycloalkylamine derivatives of heterocycle-fused benzodioxans” (Wyeth, priority 2002, dated 2005)

Tests used:
[1] = target: T1, serotonin transporter (Rattus norvegicus, UniProt P31652); experiment: Displacement of 3H-paroxetine from male rat frontal cortical membranes (serotonin transporter affinity); type: binding; conditions: read-out: 5-HT Transporter Affinity Ki
T1 construct: displace ^3H-paroxetine from male rat frontal cortical membranes; from tissue; host or cells: male rat frontal cortex membranes
T1 sequence (P31652 whole entry): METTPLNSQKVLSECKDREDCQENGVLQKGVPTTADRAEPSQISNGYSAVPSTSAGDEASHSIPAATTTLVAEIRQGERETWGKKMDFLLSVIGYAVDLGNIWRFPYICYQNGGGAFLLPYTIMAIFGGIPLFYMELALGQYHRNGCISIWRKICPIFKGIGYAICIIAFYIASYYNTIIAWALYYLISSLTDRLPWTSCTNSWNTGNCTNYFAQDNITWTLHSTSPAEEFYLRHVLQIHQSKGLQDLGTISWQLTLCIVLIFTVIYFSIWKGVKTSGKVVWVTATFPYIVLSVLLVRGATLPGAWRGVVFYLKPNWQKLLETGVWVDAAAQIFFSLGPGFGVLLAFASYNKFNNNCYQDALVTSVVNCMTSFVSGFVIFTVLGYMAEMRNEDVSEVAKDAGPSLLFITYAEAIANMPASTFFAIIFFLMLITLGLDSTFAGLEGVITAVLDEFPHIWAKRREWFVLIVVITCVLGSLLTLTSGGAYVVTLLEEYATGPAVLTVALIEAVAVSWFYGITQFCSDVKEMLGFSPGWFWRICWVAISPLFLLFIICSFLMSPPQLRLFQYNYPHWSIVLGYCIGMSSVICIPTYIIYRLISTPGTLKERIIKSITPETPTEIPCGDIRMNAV

[2] = target: T2, human 5HT1A receptors (Homo sapiens, UniProt P08908); experiment: Displacement of [3H] 8-OH-DPAT from 5HT1A receptor in stably transfected CHO cells; type: binding; conditions: CHO cells with human 5HT1A receptors, read-out: 5HT1A Receptor Affinity Ki
T2 construct: expressed in transfected cells; host or cells: CHO cells
T2 sequence (P08908 1-422): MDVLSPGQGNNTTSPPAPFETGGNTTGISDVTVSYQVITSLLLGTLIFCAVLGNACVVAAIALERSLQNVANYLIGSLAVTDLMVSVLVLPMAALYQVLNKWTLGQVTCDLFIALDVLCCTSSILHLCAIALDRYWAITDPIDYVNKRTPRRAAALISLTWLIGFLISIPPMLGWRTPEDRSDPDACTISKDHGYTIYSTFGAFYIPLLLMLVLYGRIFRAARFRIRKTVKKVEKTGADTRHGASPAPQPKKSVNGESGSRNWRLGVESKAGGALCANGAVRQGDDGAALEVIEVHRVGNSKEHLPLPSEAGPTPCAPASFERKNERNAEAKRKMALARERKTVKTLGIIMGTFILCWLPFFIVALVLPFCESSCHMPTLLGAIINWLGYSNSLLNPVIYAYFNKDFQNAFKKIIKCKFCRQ
Text: High affinity for the serotonin 5HT1A receptor was established by testing the claimed compound's ability to displace [^3H] 8-OH-DPAT (dipropylamino-tetralin) from the 5HT1A serotonin receptor following a modification of the procedure of Hall, et al., J. Neurochem. 44, 1685 (1985), which utilizes CHO cells stably transfected with human 5HT1A receptors.

[3] = target: T3, cloned human 5HT1A receptors (Homo sapiens, UniProt P08908); experiment: 35S-GTPγS binding assay, membranes containing cloned human 5HT1A receptors; type: biochemical; conditions: for IC50: antagonist potency, reversal of the standard agonist 8-OH-DPAT, read-out: 5HT1A Function IC50; for 5HT1A Function (Imax): maximum inhibitory effect, value in parentheses
T3 construct: expressed in transfected cells
T3 sequence (P08908 1-422): T2 sequence (P08908 1-422)
Experimental: Antagonist activity at 5HT1A receptors was established by using a ^35S-GTPγS binding assay similar to that used by Lazareno and Birdsall (Br. J. Pharmacol. 109:1120, 1993), in which the test compound's ability to affect the binding of ^35S-GTPγS to membranes containing cloned human 5HT1A receptors was determined. Agonists produce an increase in binding whereas antagonists produce no increase but rather reverse the effects of the standard agonist 8-OH-DPAT. The test compound's maximum inhibitory effect is represented as the Imax, while its potency is defined by the IC50.

| Compound | Ki [1] [nM] | Ki [2] [nM] | IC50 [3] [nM] | 5HT1A Function (Imax) [3] [%] | EC50 ([3]; given as EC50, increase in 35S-GTPγS binding (agonist), read-out: 5HT1A Function EC50) [nM] | Emax ([3]; given as Emax, agonist effect, read-out: 5HT1A Function Emax) [%] |
| --- | --- | --- | --- | --- | --- | --- |
| Cc1ccc2c3c(ccc2n1)OC[C@H](CN[C@@H]1CC[C@H](c2c[nH]c4ccc(F)cc24)C1)O3 (single isomer, unassigned) [Example 3-Isomer A, N-[(1R*,3S*)-3-(5-fluoro-1H-indol-3-yl)cyclopentyl]-N-{[(2S)-8-methyl-2,3-dihydro[1,4]dioxino[2,3-f]quinolin-2-yl]methyl}amine] | 0.38 | 8.73 | 69 | 82 |  |  |
| Cc1ccc2c3c(ccc2n1)OCC(CNC1CCC(c2c[nH]c4ccc(F)cc24)C1)O3 (single isomer, unassigned) [Example 3-Isomer B, N-[(1S*,3R*)-3-(5-fluoro-1H-indol-3-yl)cyclopentyl]-N-{[(2S)-8-methyl-2,3-dihydror[1,4]dioxino[2,3-f]quinolin-2-yl]methyl}amine] | 0.33 | 2.03 | 34 | 97 |  |  |
| Cc1ccc2c3c(ccc2n1)OCC(CNC1CCC(c2c[nH]c4ccccc24)C1)O3 [Example 2, N-[(trans)-3-(1H-indol-3-yl)cyclopentyl]-N-{[(2S)-8-methyl-2,3-dihydro[1,4]dioxino[2,3-f]quinoli-2-yl]methyl}amine] | 1.69 | 12.8 |  |  |  |  |
| Cc1ccc2c3c(ccc2n1)OC[C@H](CN[C@H]1CC[C@@H](c2c[nH]c4ccc(F)cc24)C1)O3 (mixture of isomers) [Example 3, N-[(cis)-3-(5-fluoro-1H-indol-3-yl)cyclopentyl]-N-{[(2S)-8-methyl-2,3-dihydro[1,4]dioxino[2,3-f]quinolin-2-yl]methyl}amine] | 0.93 | 4.73 | 83 | 100 |  |  |
| Cc1ccc2c3c(ccc2n1)OCC(CNC1CCC(c2c[nH]c4ccc(F)cc24)C1)O3 [Example 4, N-[(trans)-3-(5-fluoro-1H-indol-3-yl)cyclopentyl]-N-{[(2S)-8-methyl-2,3-dihydro[1,4]dioxino[2,3-f]quinoli-2-yl]methyl}amine] | 0.62 | 9.12 | 44 | 84 |  |  |
| Cc1ccc2c3c(ccc2n1)OC[C@H](CN[C@H]1CC[C@H](c2c[nH]c4ccc(F)cc24)C1)O3 (single isomer, unassigned) [Example 4-Isomer A, N-[(1S*,3S*)-3-(5-fluoro-1H-indol-3-yl)cyclopentyl]-N-{[(2S)-8-methyl-2,3-dihydro[1,4]dioxino[2,3-f]quinolin-2-yl]methyl}amine] | 0.54 | 7.72 | 60 | 56 |  |  |
| Cc1ccc2c3c(ccc2n1)OC[C@H](CN[C@H]1CC[C@@H](c2c[nH]c4ccccc24)C1)O3 (mixture of isomers) [Example 1, N-[(cis)-3-(1H-indol-3-yl)cyclopentyl]-N-{[(2S)-8-methyl-2,3-dihydro[1,4]dioxino[2,3-f]quinolin-2-yl]methyl}amine] | 1.25 | 2.56 |  |  | 33 | 38 |
| Cc1ccc2c3c(ccc2n1)OC[C@H](CN[C@@H]1CC[C@@H](c2c[nH]c4ccc(F)cc24)C1)O3 (single isomer, unassigned) [Example 4-Isomer B, N-[(1R*,3R*)-3-(5-fluoro-1H-indol-3-yl)cyclopentyl]-N-{[(2S)-8-methyl-2,3-dihydro[1,4]dioxino[2,3-f]quinolin-2-yl]methyl}amine] | 0.67 | 26.5 | 1440 | 100 |  |  |
| Cc1ccc2c3c(ccc2n1)OC[C@H](CN[C@H]1CC[C@@H](c2c[nH]c4ccc(F)cc42)CC1)O3 [Example 7, (cis)-N-[4-(5-fluoro-1H-indol-3-yl)cyclohexyl]-N-{[(2S)-8-methyl-2,3-dihydro[1,4]dioxino[2,3-f]quinolin-2-yl]methyl}amine] | 19 | 51.7 |  |  |  |  |
